{"source": "patent US9157904B2", "about": "“Wnt antagonists and methods of treatment and screening” (OncoMed Pharmaceuticals, Inc., priority 2010, dated 2015)", "key": {"PN4 pancreatic tumors": {"system": "PN4 pancreatic tumors", "assay": "In vivo limiting dilution assay of treated PN4 tumors", "set-up": "species or system NOD/SCID mice", "conditions": "day 75 after injection of 30, 90, 270 cells, control 7 out of 30", "from_the_text": "Limiting dilution assays (LDA) can be used to assess the effect of therapeutic agents on solid tumor cancer stem cells and on the tumorigenicity of a tumor comprising the cancer stem cells. Such assays can be used to determine the frequency of cancer stem cells in tumors from animals treated with the FZD8-Fc fusion protein or other agent and to compare that frequency to the frequency of cancer stem cells in tumors from control animals. Control and treated tumors from the PN4 xenograft study described above were harvested at the end of the study (day 85). The tumors were processed and dissociated into single cells. […] The human cells in the suspension were harvested, counted, and stained for cell surface markers and appropriate cell doses (30, 90, and 270 cells) in FACS buffer were mixed in a 1:1 mixture with Matrigel and injected subcutaneously in NOD/SCID mice (10 mice per cell dose per treatment group). […] At the desired time point, the percentage of mice with detectable tumors was determined in all groups injected with FZD8-Fc-treated tumor cells and compared to the percentage of mice with detectable tumors in the controls. For example, the number of mice injected with 125 control antibody-treated tumor cells that have detectable tumors is determined and compared to the number of mice injected with 125 FZD8-Fc treated tumor cells that have detectable tumors. […]"}, "PN13 tumors": {"system": "PN13 tumors", "assay": "Alcian blue and Ki67 staining of treated PN13 tumors", "assay_type": "in vivo, NOD/SCID mice", "conditions": "FZD8-Fc 15 mg/kg i.p. twice weekly, 19 days, vs control antibody", "description": "The cell differentiation capability of FZD8-Fc was also evaluated in the OMP-PN13 pancreas tumor xenograft model. Dissociated OMP-PN13 cells (50,000 per animal) were injected subcutaneously into 6-8 week old male NOD/SCID mice. Tumor growth was monitored weekly and tumor measurements were initiated once tumors were palpable. On day 40 mice with average tumor volume of 114 mm^3 were randomized into 4 groups of 10 animals each. Animals were injected with either control antibody or FZD8-Fc (15 mg/kg). Administration of the FZD8-Fc and control antibody was performed via injection into the intraperitoneal cavity, twice weekly. After 19 days of treatment, the tumors were excised and immunohistochemistry analysis was performed using standard techniques. Briefly, tumors were fixed in formalin, embedded in paraffin, and tumor sections of 4 μm thickness were cut. After deparaffinization and hydration, the tumor sections were subjected to an antigen retrieval process in Tris buffer (pH 9.5). Sections were incubated with hydrogen peroxide (Sigma-Aldrich, St Louis, Mo.) for 10 minutes to block endogenous peroxidases. Anti-Ki67 antibody (Dako, clone MIB-1) at 1:200 dilution in blocking buffer (3% NHS, 1% BSA, 0.1% Tween-20, in PBS) was added to each section and incubated for 1 hour. Slides were rinsed 3 times in PBST for 5 minutes each. […]"}, "C28 colon tumor": {"system": "C28 colon tumor", "assay": "C28 colon tumor xenograft, FZD8-Fc variants (Example 17)", "assay_type": "in vivo, NOD/SCID mice", "conditions": "C28 established tumors; 15 mg/kg i.p. twice a week; after three weeks of treatment", "description": "(§1) Dissociated C28 colon tumor cells (10,000 cells) were injected subcutaneously into 6-8 week old male NOD/SCID mice. Tumors were allowed to grow for 56 days until they reached an average volume of 175 mm^3. The mice were randomized (n=10 per group) and treated with FZD8-Fc constructs 54F03, 54F23, 54F26, or a control antibody at a dose of 15 mg/kg twice a week. Administration of the FZD8-Fc variants and control antibody was performed via injection into the intraperitoneal cavity. Tumor growth was monitored and tumor volumes were measured with electronic calipers at the indicated time points. Data are expressed as mean±S.E.M."}, "[1]": {"assay": "Pharmacokinetics of FZD8-Fc in rat", "assay_type": "in vivo, Sprague Dawley rats", "conditions": "tail vein, plasma", "experimental": "The pharmacokinetics of FZD8-Fc (54F03) were assessed in rats in a two week pharmacokinetics (PK) study using doses of 2 mg/kg and 10 mg/kg. Sprague Dawley rats, five males in each group, were dosed with FZD8-Fc via the tail vein at 2 mg/kg or 10 mg/kg and followed for two weeks with samples collected at the time points 1, 24, 48, 72, 96, 168, 240, and 336 hours. At each time point, 1 ml of blood was collected into potassium-EDTA tubes and centrifuged. The plasma supernatants were collected and frozen until the samples were analyzed.\nThe level of FZD8-Fc fusion protein present in the plasma at each time point was quantified and the half-life of FZD8-Fc was calculated for the two doses."}, "[2]": {"system": "C28 colon tumor xenografts", "assay": "C28 colon tumor xenograft, combination with irinotecan", "assay_type": "in vivo, NOD/SCID mice", "conditions": "C28 established tumors; FZD8-Fc 15 mg/kg once a week, irinotecan 15 mg/kg once a week, i.p.", "description": "as §1, with “The effect of FZD8-Fc in combination with a chemotherapeutic agent on the growth of C28 colon tumor xenografts was analyzed. Dissociated” for “Dissociated”, “21” for “56”, “128” for “175”, “(54F03) (15 mg/kg once a week), irinotecan (15 mg/kg once a week), a combination of FZD8-Fc and irinotecan” for “constructs 54F03, 54F23, 54F26,”, “antibody.” for “antibody at a dose of 15 mg/kg twice a week.”, “FZD8-Fc, irinotecan” for “FZD8-Fc variants”"}}}
{"substance": "54F03: Fri domain of human FZD8 fused to human IgG1 Fc with GRA linker; SEQ ID NO:1", "values": [{"measurement": "tumor take rate", "setting": "PN4 pancreatic tumors", "value": "3 mice out of 30 mice"}, {"measurement": "cells expressing sialomucins (alcian blue)", "setting": "PN13 tumors", "value": "increase in cells expressing sialomucins"}, {"measurement": "proliferating cells denoted by expression of Ki67", "setting": "PN13 tumors", "value": "decrease in proliferating cells"}, {"measurement": "reduction of tumor growth as compared to control antibody", "setting": "C28 colon tumor", "value": 48, "unit": "%"}, {"measurement": "half-life", "setting": "[1]; 2 mg/kg", "value": 163, "unit": "h"}, {"measurement": "half-life", "setting": "[1]; 10 mg/kg", "value": 157, "unit": "h"}, {"measurement": "reduction in tumor growth over control antibody", "setting": "[2]", "value": 66, "unit": "%"}]}
